# From patent US7022736B2, “Enzyme inhibitors” (Istituto Di Ricerche Di Biologia Molecolare P Angeletti SpA, priority 1998, dated 2006)
# Read-outs that look alike come from different tables or passages of the source.
# Molecular target: T1, HCV RdRp (NS5B RNA-dependent RNA polymerase) (Hepatitis C virus genotype 1b, UniProt P26663)
# T1 construct: The HCV NS5B protein is the viral RdRp; made in house; host or cells: insect cells infected with recombinant baculovirus
# Experiment: Inhibition of hepatitis C virus RdRp (poly(A)/oligo(U), [3H]UTP incorporation)
# Assay type: biochemical
# Experimental: In initial tests, the compounds were tested to see if they were effective as inhibitors of the RNA-dependent RNA polymerase (RdRp) of hepatitis C virus (HCV). The HCV NS5B protein is the viral RdRp; compounds capable of interfering with the activity of this enzyme are thus expected to block viral replication.
# Test for Inhibition of Hepatatis C Virus RdRp
# WO96/37619 describes the production of recombinant HCV RdRp from insect cells infected with recombinant baculovirus encoding the enzyme. […] The reference describes a polymerisation assay using poly (A) as a template and oligo (U) as a primer. Incorporation of tritiated UTP is quantified by measuring acid-insoluble radioactivity. The present inventors have employed this assay to screen the various compounds described above as inhibitors of HCV RdRp and other virally encoded polymerases.
# Incorporation of radioactive UMP was measured as follows. The standard reaction (100 μl) was carried out in a buffer containing 20 mM tris/HCl pH 7.5, 5 mM MgCl2, 1 mM DTT, 50 mM NaCl, 1 mM EDTA, 2 OU Rnasin (Promega), 0.05% Triton X-100, 1 μCi[^3H] UTP (40 Ci/mmol,NEN), 10 μM UTP and 10 μg/ml poly (A). Oligo (U)12 (1 μg/ml, Genset) was added as a primer. The final NSSB enzyme concentration was 20 nM. After 1 hour incubation at 22° C. the reaction was stopped by adding 100 μl of 20% TCA and applying samples to DE81 filters. The filters were washed thoroughly with 5% TCA containing 1M Na2HPO4/NaH2PO4, pH 7.0, rinsed with water and then ethanol, air dried, and the filter-bound radioactivity was measured in the scintillation counter. By carrying out the reaction in the presence of various concentrations of each of the compounds set out above it was possible to determine IC50 values for each compound with the formula: % residual activity=100/(1+[I]/IC50)^s where [I] is the inhibitor concentration and “s” is the slope of the inhibition curve. Test for Inhibition of Hepatitis B Virus Polymerase
# [1] = Tables I-VIII, 20 nM NS5B, 1 hour at 22° C., read-out: IC 50 (μM), HCV-polymerase
# [2] = Tables IXa-IXc, unit inferred, read-out: HCV (IC50)
# T1 sequence (P26663 2420-3010): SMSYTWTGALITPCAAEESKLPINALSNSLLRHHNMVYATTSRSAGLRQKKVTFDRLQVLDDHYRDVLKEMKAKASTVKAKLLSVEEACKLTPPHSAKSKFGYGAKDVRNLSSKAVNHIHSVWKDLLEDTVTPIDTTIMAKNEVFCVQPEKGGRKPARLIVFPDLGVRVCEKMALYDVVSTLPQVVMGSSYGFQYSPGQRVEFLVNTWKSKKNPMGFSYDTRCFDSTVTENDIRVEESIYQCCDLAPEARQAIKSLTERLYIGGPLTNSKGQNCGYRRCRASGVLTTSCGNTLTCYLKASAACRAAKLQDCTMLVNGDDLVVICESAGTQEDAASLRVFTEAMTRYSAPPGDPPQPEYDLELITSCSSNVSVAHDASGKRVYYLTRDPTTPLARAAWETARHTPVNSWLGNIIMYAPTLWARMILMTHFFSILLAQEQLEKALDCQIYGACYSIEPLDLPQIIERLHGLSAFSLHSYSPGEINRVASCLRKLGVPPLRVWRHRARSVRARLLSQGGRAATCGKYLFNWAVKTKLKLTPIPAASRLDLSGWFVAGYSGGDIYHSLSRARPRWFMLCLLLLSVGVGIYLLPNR
Compound,IC50 [1] [µM],IC50 [2] [µM]
O=C(O)C(O)=CC(=O)c1cccc(OCc2cc(-c3ccccc3)on2)c1 [Example 103],6,6
O=C(O)C(O)=CC(=O)c1cccc(OCc2cccc(Oc3ccccc3)c2)c1 [Example 104],50,
Cc1cc(COc2cccc(C(=O)C=C(O)C(=O)O)c2)no1 [Example 106],6.8,
N#Cc1ccc(-c2ccccc2)cc1COc1cccc(C(=O)C=C(O)C(=O)O)c1 [Example 116],0.3,0.3
Cc1cccc(C(C)Oc2cccc(C(=O)C=C(O)C(=O)O)c2)c1C#N (stereo not drawn) [Example 122],2,
O=C(O)C(O)=CC(=O)c1cccc(OCc2cccc3ccccc23)c1 [Example 132],0.67,
O=C(O)C(O)=CC(=O)c1cc(Cc2ccccc2)ccc1F [Example 152],20,
N#Cc1ccccc1COc1cc(O)cc(C(=O)C=C(O)C(=O)O)c1 [Example 158],0.2,0.2
N#Cc1cccc(Cl)c1COc1cc(O)cc(C(=O)C=C(O)C(=O)O)c1 [Example 160],0.1,0.1
O=C(O)C(O)=CC(=O)c1ccc(O)cc1 [Example 162],5.5,5.5
O=C(O)C(O)=CC(=O)c1ccc(F)cc1 [Example 163],26,
CCc1ccc(C(=O)C=C(O)C(=O)O)cc1 [Example 164],47,
Cc1ccc(C(=O)C=C(O)C(=O)O)c(C)c1 [Example 165],2,2
Cc1ccc(C(=O)C=C(O)C(=O)O)c(OCCCC#N)c1 [Example 167],0.6,
N#CCCCOc1cccc(OCCCC#N)c1C(=O)C=C(O)C(=O)O [Example 171],12,
COc1cccc(OC)c1C(=O)C=C(O)C(=O)O [Example 172],> 50,
N#CCCCn1cccc1C(=O)C=C(O)C(=O)O [Example 173],21,

Compound,IC50 [1] [µM],IC50 [2] [µM]
N#CCCCCn1cccc1C(=O)C=C(O)C(=O)O [Example 174],13.4,
O=C(O)C(O)=CC(=O)c1cccn1CC1CCCC1 [Example 175],25,
O=C(O)C(O)=CC(=O)c1cccn1Cc1ccccc1 [Example 176],29,
O=C(O)C(O)=CC(=O)c1cccn1-c1ccc(F)cc1 [Example 177],25,
O=C(O)C(O)=CC(=O)c1cccn1CC1CCCCC1 [Example 178],17.9,
O=C(O)C(O)=CC(=O)c1cccn1Cc1ccc(O)cc1 [Example 179],12.8,12.8
O=C(O)C(O)=CC(=O)c1cccn1Cc1ccc(F)cc1 [Example 180],93,
O=C(O)C(O)=CC(=O)c1cccn1Cc1cccc(F)c1 [Example 181],30,
O=C(O)C(O)=CC(=O)c1cccn1Cc1ccccc1F [Example 182],30,
N#Cc1ccc(Cn2cccc2C(=O)C=C(O)C(=O)O)cc1 [Example 183],32,
N#Cc1ccccc1Cn1cccc1C(=O)C=C(O)C(=O)O [Example 184],6.7,
O=C(O)C(O)=CC(=O)c1cccn1Cc1ccccc1Cl [Example 186],24,
O=C(O)C(O)=CC(=O)c1cccn1CCCc1ccc(F)cc1 [Example 187],36,
O=C(O)C(O)=CC(=O)c1cccn1Cc1ccc2ccccc2c1 [Example 188],12.7,
O=C(O)C(O)=CC(=O)c1cccn1CCCCOc1ccccc1 [Example 189],28,
O=C(O)C(O)=CC(=O)c1cc(I)cn1Cc1ccc(F)cc1 [Example 190],18,18
Cc1ccsc1C(=O)C=C(O)C(=O)O [Example 191],10,

# More lines, now with the values ahead:
IC50 [1] [µM],IC50 [2] [µM],Compound
7,,O=C(O)C(O)=CC(=O)c1cccc(NS(=O)(=O)c2cccs2)c1 [Example 101]
1.5,,O=C(O)C(O)=CC(=O)c1cccc(NS(=O)(=O)c2ccc(Cl)s2)c1 [Example 102]
13.7,,O=C(O)C(O)=CC(=O)c1cccc(OCc2cccc[n+]2[O-])c1 [Example 105]
6.9,,O=C(O)C(O)=CC(=O)c1cccc(NS(=O)(=O)Cc2ccccc2)c1 [Example 108]
0.17,0.17,N#Cc1c(Cl)cccc1COc1cccc(C(=O)C=C(O)C(=O)O)c1 [Example 109]
30,,O=C(O)C(O)=CC(=O)c1cccc(COc2ccccc2)c1 [Example 110]
0.5,,O=C(O)C(O)=CC(=O)c1cccc(NS(=O)(=O)c2ccc3ccccc3c2)c1 [Example 114]
3.7,,O=C(O)C(O)=CC(=O)c1cccc(NS(=O)(=O)c2ccc(C(F)(F)F)cc2Cl)c1 [Example 115]
0.2,,O=C(O)C(O)=CC(=O)c1cccc(NS(=O)(=O)c2cccc(Cl)c2Cl)c1 [Example 118]
0.049,,O=C(O)C(O)=CC(=O)c1cccc(NS(=O)(=O)c2cc(Cl)c(Cl)cc2Cl)c1 [Example 119]
4,,O=C(NCCc1ccccc1)Nc1cccc(C(=O)C=C(O)C(=O)O)c1 [Example 121]
0.29,,Cc1c(Cl)cccc1S(=O)(=O)Nc1cccc(C(=O)C=C(O)C(=O)O)c1 [Example 123]
28,,O=C(O)C(O)=CC(=O)c1cccc(NS(=O)(=O)c2ccc(-c3ccccc3)cc2)c1 [Example 124]
0.17,,O=C(O)C(O)=CC(=O)c1cccc(NS(=O)(=O)c2ccc(Cl)c(Cl)c2Cl)c1 [Example 125]
0.3,,O=C(O)C(O)=CC(=O)c1cccc(NS(=O)(=O)c2cc(Cl)cc(Cl)c2O)c1 [Example 127]
24,,CCOC(=O)c1ccccc1S(=O)(=O)Nc1cccc(C(=O)C=C(O)C(=O)O)c1 [Example 128]
1.6,,COc1ccc(Cl)cc1S(=O)(=O)Nc1cccc(C(=O)C=C(O)C(=O)O)c1 [Example 129]
0.14,,O=C(O)C(O)=CC(=O)c1cccc(NS(=O)(=O)c2c(Cl)sc(Cl)c2Br)c1 [Example 130]
0.78,,O=C(O)C(O)=CC(=O)c1cccc(NS(=O)(=O)c2cccc(Cl)c2)c1 [Example 131]
3.2,,O=C(O)C(O)=CC(=O)c1cccc(OCc2ccc(Cl)c(Cl)c2)c1 [Example 133]
23,,O=C(O)C(O)=CC(=O)c1cccc(NS(=O)(=O)CCCCl)c1 [Example 134]

IC50 [1] [µM],IC50 [2] [µM],Compound
21,,O=C(O)C(O)=CC(=O)c1cccc(NS(=O)(=O)c2cc(Cl)c(Oc3ccc([N+](=O)[O-])cc3Cl)c(Cl)c2)c1 [Example 135]
0.2,,O=C(O)C(O)=CC(=O)c1cccc(NS(=O)(=O)c2ccc(Cl)c(Cl)c2)c1 [Example 136]
0.9,,Cc1ccc(S(=O)(=O)Nc2cccc(C(=O)C=C(O)C(=O)O)c2)cc1Cl [Example 137]
1.1,,O=C(O)C(O)=CC(=O)c1cccc(NS(=O)(=O)c2ccc(F)cc2Cl)c1 [Example 138]
1.4,,O=C(O)C(O)=CC(=O)c1cccc(OCc2c(Cl)cccc2Cl)c1 [Example 139]
1,,O=C(O)C(O)=CC(=O)c1cccc(NS(=O)(=O)c2c(Cl)cc(C(F)(F)F)cc2Cl)c1 [Example 140]
0.56,,O=C(O)C(O)=CC(=O)c1cccc(NS(=O)(=O)c2ccc(Cl)c([N+](=O)[O-])c2)c1 [Example 141]
0.4,,O=C(O)C(O)=CC(=O)c1cccc(NS(=O)(=O)c2cccc([N+](=O)[O-])c2)c1 [Example 142]
0.45,,O=C(O)C(O)=CC(=O)c1cccc(NS(=O)(=O)c2ccc(F)c(Cl)c2)c1 [Example 143]
14,,O=C(O)C(O)=CC(=O)c1cccc(S(=O)(=O)Nc2ccccc2)c1 [Example 144]
1.2,,O=C(O)C(O)=CC(=O)c1cccc(S(=O)(=O)Nc2ccc(Cl)cc2)c1 [Example 145]
15,,Cc1cc(C)c(S(=O)(=O)Nc2cccc(C(=O)C=C(O)C(=O)O)c2)c(C)c1 [Example 146]
1.3,,Cc1cc(S(=O)(=O)Nc2cccc(C(=O)C=C(O)C(=O)O)c2)c(C)cc1Cl [Example 147]
0.26,,O=C(O)C(O)=CC(=O)c1cccc(NS(=O)(=O)c2c(Cl)cc(Cl)cc2Cl)c1 [Example 148]
0.55,,Cc1cc(S(=O)(=O)Nc2cccc(C(=O)C=C(O)C(=O)O)c2)c(Cl)cc1Cl [Example 149]
2.3,,Cc1cc(Cl)cc(Cl)c1S(=O)(=O)Nc1cccc(C(=O)C=C(O)C(=O)O)c1 [Example 150]
0.5,,O=C(O)C(O)=CC(=O)c1cccc(NS(=O)(=O)c2ccc(Cl)cc2Cl)c1 [Example 151]
19,,O=C(O)C(O)=CC(=O)c1cccc(Cn2nc3ccccc3n2)c1 [Example 153]
30,,O=C(O)C(O)=CC(=O)c1cccc(Cn2nnc3ccccc32)c1 [Example 154]
20,,O=C(O)C(O)=CC(=O)c1ccc(Cl)cc1 [Example 166]
